In the assay the target is T1, recombinant soluble human CD73 (Homo sapiens, UniProt P21589, T376A).
T1 construct: mature human CD73 (residues 27-549) fused to 6×His-tag at the C-terminus; 6xHis (C); made in house; host or cells: Spodoptera frugiperda Sf9 insect cells (baculovirus, pAcGP67B vector)
T1 sequence (P21589 27-549 T376A): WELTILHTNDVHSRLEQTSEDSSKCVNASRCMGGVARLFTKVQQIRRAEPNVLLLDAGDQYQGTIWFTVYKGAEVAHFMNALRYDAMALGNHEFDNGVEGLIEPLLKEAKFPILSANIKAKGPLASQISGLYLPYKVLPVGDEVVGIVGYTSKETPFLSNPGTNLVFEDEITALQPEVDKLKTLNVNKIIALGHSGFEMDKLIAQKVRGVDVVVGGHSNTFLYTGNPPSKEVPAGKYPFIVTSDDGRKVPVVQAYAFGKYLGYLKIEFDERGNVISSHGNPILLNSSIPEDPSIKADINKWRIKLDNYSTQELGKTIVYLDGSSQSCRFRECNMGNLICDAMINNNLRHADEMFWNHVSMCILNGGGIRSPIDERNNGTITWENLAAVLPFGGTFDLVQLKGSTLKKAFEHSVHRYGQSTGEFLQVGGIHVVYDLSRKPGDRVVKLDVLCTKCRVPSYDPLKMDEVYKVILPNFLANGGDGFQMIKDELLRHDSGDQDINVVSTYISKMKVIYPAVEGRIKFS
Briefly: CD73 enzyme inhibition assay with [2,8-3H]AMP, soluble human CD73. Format: biochemical. The conditions noted are these: [2,8-3H]AMP (5 μM) as substrate; Ki from IC50 by Cheng-Prusoff; read-out: Human soluble CD73 Ki ± SEM. How it is done:
Compound 2b, its precursor 1, and 20 were investigated for their CD73-inhibitory potency using tritium-labeled AMP as a substrate.^20 After incubation with CD73, non-hydrolyzed substrate and inorganic phosphate were precipitated using a solution of lanthanum chloride, and the precipitate was separated from the solution containing the reaction product [2,8-^3H]adenosine by filtration through GF/B glass fiber filters (WhatmanTM GE Healthcare, Chicago, IL, USA) using a cell harvester (M-48, Brandel, Gaitherburg, MD, USA). The filtrates (ca. 1.8 mL each) were transferred to scintillation vials, scintillation cocktail ULTIMA Gold XR (PerkinElmer, Waltham, MA, USA) was added (5 mL), and the radioactivity esd quantified by scintillation counting. CD73 preparations were (1) recombinant soluble human CD73,^13 (2) recombinant soluble rat CD73,^21 both expressed in Spodoptera frugiperda 9 (Sf) cells, (3) membrane preparations of MDA-MB-231 cells,^16 a human triple-negative breast cancer cell line with high expression of CD73,^18 and (4) membrane preparations of the 4T1.2 cell line, a mouse CD73-expressing breast cancer cell line.^22 The potency of the compounds was determined by measurements of full concentration-inhibition curves. K values were calcuated from the obtained IC50 values employing the Cheng-Prusoff equation.^23
Human soluble CD73 was expressed in Spodoptera frugiperda (Sf9) insect cells and purified as previously described.^16 The cDNA encoding for the mature human CD73 (residues 27-549) fused to 6×His-tag at the C-terminus (Genbank accession no. NM_002526) corresponding to the natural variant T376A (P21589/VAR_022091, UniProtKB/Swiss-Prot) was ligated into the pAcGP67B vector. For transfection, 1 μl of the recombinant vector (1000 ng/μl) mixed with 2.5 μl of baculovirus genomic DNA ProEasy™ (AB vector, CA, USA) was used to transfect Sf9 cells grown in Insect-XPRESS™ medium (#BE12-7300, Lonza, Switzerland) supplemented with 10 mg/l gentamicin. […]

For `CCCN(Cc1ccc(-c2cn(CCF)nn2)cc1)c1nc(Cl)nc2c1ncn2[C@@H]1O[C@H](COP(=O)(O)CP(=O)(O)O)C(O)C1O` (some centres unmarked) [Compound 2], the inhibitory constant (Ki) – broadly, the equilibrium dissociation constant of an inhibitor or competing ligand from its target – turned out to be 1.02 ± 0.11 nM.
With `O=C(NCCCCCCNC(=O)c1ccc2c(c1)C1(OC2=O)c2ccc(O)cc2Oc2cc(O)ccc21)c1ccc(CNc2nc(Cl)nc3c2ncn3[C@@H]2O[C@H](COP(=O)(O)CP(=O)(O)O)[C@@H](O)[C@H]2O)cc1` [Compound 20, (((((2R,3S,4R,5R)-5-(2-chloro-6-((4-((6-(3′,6′-dihydroxy-3-oxo-3H-spiro[isobenzofuran-1,9′-xanthene]-6-carboxamido)-hexyl)carbamoyl)benzyl)amino)-9H-purin-9-yl)-3,4-dihydroxytetrahydrofuran-2-yl)methoxy)(hydroxy)phosphoryl)methyl)phosphonic acid] the figure was 5.96 ± 0.85 nM.

For the origin of these results see US20250382322A1, “DIAGNOSTICS FOR DETECTING ECTO-5'-NUCLEOTIDASE (CD73)” (EBERHARD KARLS UNIVERSITÄT TÜBINGEN, priority 2022, published 2025).
